# Results: patent US20100298141A1, “SUBSTITUTED PYRIDINE N-OXIDE HERBICIDES” (E. I. DU PONT DE NEMOURS AND COMPANY, priority 2007, published 2010)
# Key:
# cotton = assay: Test G preemergence test; assay type: in vivo, Gossypium hirsutum; details: scale 0 to 100
# annual bluegrass = assay: Test D preemergence test; assay type: in vivo, Poa annua; details: scale 0 to 100
# In short: (§1)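 Seeds were sown and sprayed preemergence with test chemicals formulated in a non-phytotoxic solvent mixture containing a surfactant. A dash marks no test result.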
# winter barley = assay: Test D preemergence test; assay type: in vivo, Hordeum vulgare
# In short: as §1
# giant foxtail = assay: Test G preemergence test; assay type: in vivo, Setaria faberii; details: scale 0 to 100
# field violet = assay: Test D preemergence test; assay type: in vivo, Viola arvensis; details: scale 0 to 100
# In short: as §1
# littleseed canarygrass = assay: Test D preemergence test; assay type: in vivo, Phalaris minor; details: scale 0 to 100
# In short: as §1
# goosegrass = assay: Test G preemergence test; assay type: in vivo, Eleusine indica; details: scale 0 to 100
# yellow foxtail = assay: Test G preemergence test; assay type: in vivo, Pennisetum glaucum; details: scale 0 to 100
# fall panicum = assay: Test G preemergence test; assay type: in vivo, Panicum dichotomiflorum; details: scale 0 to 100
# millet foxtail = assay: Test G preemergence test; assay type: in vivo, Setaria italica; details: scale 0 to 100
# downy bromegrass = assay: Test D preemergence test; assay type: in vivo, Bromus tectorum; details: scale 0 to 100
# In short: as §1
# yellow nutsedge = assay: Test G preemergence test; assay type: in vivo, Cyperus esculentus; details: scale 0 to 100
# spring wheat = assay: Test D preemergence test; assay type: in vivo, Triticum aestivum; details: scale 0 to 100
# In short: as §1
# winter wheat = assay: Test D preemergence test; assay type: in vivo, Triticum aestivum; details: scale 0 to 100
# In short: as §1
# large crabgrass = assay: Test G preemergence test; assay type: in vivo, Digitaria sanguinalis; details: scale 0 to 100
# sorghum = assay: Test G preemergence test; assay type: in vivo, Sorghum vulgare; details: scale 0 to 100
# wild oat = assay: Test D preemergence test; assay type: in vivo, Avena fatua; details: scale 0 to 100
# In short: as §1
# broadleaf signalgrass = assay: Test G preemergence test; assay type: in vivo, Brachiaria platyphylla; details: scale 0 to 100
# umbrella sedge = assay: Test B flooded paddy test; assay type: in vivo, Cyperus difformis; details: Flood, 250 g ai/ha, 13 to 15 days; scale 0 to 100, 0 no effect, 100 complete control
# Text: (§2) At time of treatment, test pots were flooded to 3 cm above the soil surface, treated by application of test compounds directly to the paddy water, and then maintained at that water depth for the duration of the test. Treated plants and controls were maintained in a greenhouse for 13 to 15 days, after which time all species were compared to controls and visually evaluated. […] A dash (-) response means no test result.
# eastern black nightshade = assay: Test G preemergence test; assay type: in vivo, Solanum ptycanthum; details: scale 0 to 100
# woolly cupgrass = assay: Test G preemergence test; assay type: in vivo, Eriochloa villosa; details: scale 0 to 100
# millet = assay: Test G preemergence test; assay type: in vivo, Panicum miliaceum; details: scale 0 to 100
# rice = assay: Test B flooded paddy test; assay type: in vivo, Oryza sativa; details: Flood, 250 g ai/ha, 13 to 15 days; scale 0 to 100, 0 no effect, 100 complete control
# Text: as §2
# Italian ryegrass = assay: Test D preemergence test; assay type: in vivo, Lolium multiflorum; details: scale 0 to 100
# In short: as §1
# itchgrass = assay: Test G preemergence test; assay type: in vivo, Rottboellia cochinchinensis; details: scale 0 to 100
smiles,measurement,setting,value
Cc1cc[n+]([O-])c(S(=O)(=O)Cc2c(C(F)(F)F)nn(C)c2OC(F)F)c1 [Compound 2],"Plant response rating, Cotton",cotton; 31 g ai/ha,0
same,"Plant response rating, Cotton",cotton; 62 g ai/ha,0
same,"Plant response rating, Cotton",cotton; 125 g ai/ha,0
same,"Plant response rating, Cotton",cotton; 250 g ai/ha,0
same,"Plant response rating, Bluegrass",annual bluegrass; 31 g ai/ha,20
same,"Plant response rating, Bluegrass",annual bluegrass; 62 g ai/ha,40
same,"Plant response rating, Bluegrass",annual bluegrass; 125 g ai/ha,100
same,"Plant response rating, Bluegrass",annual bluegrass; 250 g ai/ha,100
same,"Plant response rating, Barley","winter barley; Preemergence, 62 g ai/ha, scale 0 to 100",0
same,"Plant response rating, Barley","winter barley; Preemergence, 125 g ai/ha, scale 0 to 100",10
same,"Plant response rating, Barley","winter barley; Preemergence, 31 g ai/ha, scale 0 to 100",0
same,"Plant response rating, Barley","winter barley; preemergence, 250 g ai/ha, scale 0 (no effect) to 100 (complete control)",10
same,"Plant response rating, Foxtail, Giant",giant foxtail; 31 g ai/ha,0
same,"Plant response rating, Foxtail, Giant",giant foxtail; 62 g ai/ha,35
same,"Plant response rating, Foxtail, Giant",giant foxtail; 125 g ai/ha,100
same,"Plant response rating, Foxtail, Giant",giant foxtail; 250 g ai/ha,100
same,"Plant response rating, Field Violet",field violet; 31 g ai/ha,0
same,"Plant response rating, Field Violet",field violet; 62 g ai/ha,0
same,"Plant response rating, Field Violet",field violet; 125 g ai/ha,95
same,"Plant response rating, Field Violet",field violet; 250 g ai/ha,100
same,"Plant response rating, Canarygrass",littleseed canarygrass; 31 g ai/ha,0
same,"Plant response rating, Canarygrass",littleseed canarygrass; 62 g ai/ha,60
same,"Plant response rating, Canarygrass",littleseed canarygrass; 125 g ai/ha,100
same,"Plant response rating, Canarygrass",littleseed canarygrass; 250 g ai/ha,100
same,"Plant response rating, Goosegrass",goosegrass; 31 g ai/ha,95
same,"Plant response rating, Goosegrass",goosegrass; 62 g ai/ha,100
same,"Plant response rating, Goosegrass",goosegrass; 125 g ai/ha,100
same,"Plant response rating, Goosegrass",goosegrass; 250 g ai/ha,100
same,"Plant response rating, Foxtail, Yellow",yellow foxtail; 31 g ai/ha,0
same,"Plant response rating, Foxtail, Yellow",yellow foxtail; 62 g ai/ha,20
same,"Plant response rating, Foxtail, Yellow",yellow foxtail; 125 g ai/ha,100
same,"Plant response rating, Foxtail, Yellow",yellow foxtail; 250 g ai/ha,100
same,"Plant response rating, Fall Panicum",fall panicum; 31 g ai/ha,25
same,"Plant response rating, Fall Panicum",fall panicum; 62 g ai/ha,65
same,"Plant response rating, Fall Panicum",fall panicum; 125 g ai/ha,100
same,"Plant response rating, Fall Panicum",fall panicum; 250 g ai/ha,100
same,"Plant response rating, Foxtail, Millet",millet foxtail; 31 g ai/ha,0
same,"Plant response rating, Foxtail, Millet",millet foxtail; 62 g ai/ha,100
same,"Plant response rating, Foxtail, Millet",millet foxtail; 125 g ai/ha,100
same,"Plant response rating, Foxtail, Millet",millet foxtail; 250 g ai/ha,100
same,"Plant response rating, Bromegrass, Downy",downy bromegrass; 31 g ai/ha,0
same,"Plant response rating, Bromegrass, Downy",downy bromegrass; 62 g ai/ha,20
same,"Plant response rating, Bromegrass, Downy",downy bromegrass; 125 g ai/ha,50
same,"Plant response rating, Bromegrass, Downy",downy bromegrass; 250 g ai/ha,55
same,"Plant response rating, Nutsedge, Yellow",yellow nutsedge; 31 g ai/ha,0
same,"Plant response rating, Nutsedge, Yellow",yellow nutsedge; 62 g ai/ha,0
same,"Plant response rating, Nutsedge, Yellow",yellow nutsedge; 125 g ai/ha,35
same,"Plant response rating, Nutsedge, Yellow",yellow nutsedge; 250 g ai/ha,75
same,"Plant response rating, Wheat, Spring",spring wheat; 31 g ai/ha,0
same,"Plant response rating, Wheat, Spring",spring wheat; 62 g ai/ha,0
same,"Plant response rating, Wheat, Spring",spring wheat; 125 g ai/ha,0
same,"Plant response rating, Wheat, Spring",spring wheat; 250 g ai/ha,15
same,"Plant response rating, Wheat, Winter",winter wheat; 31 g ai/ha,0
same,"Plant response rating, Wheat, Winter",winter wheat; 62 g ai/ha,0
same,"Plant response rating, Wheat, Winter",winter wheat; 125 g ai/ha,15
same,"Plant response rating, Wheat, Winter",winter wheat; 250 g ai/ha,25
same,"Plant response rating, Crabgrass, Large",large crabgrass; 31 g ai/ha,0
same,"Plant response rating, Crabgrass, Large",large crabgrass; 62 g ai/ha,75
same,"Plant response rating, Crabgrass, Large",large crabgrass; 125 g ai/ha,100
same,"Plant response rating, Crabgrass, Large",large crabgrass; 250 g ai/ha,100
same,"Plant response rating, Sorghum",sorghum; 31 g ai/ha,0
same,"Plant response rating, Sorghum",sorghum; 62 g ai/ha,0
same,"Plant response rating, Sorghum",sorghum; 125 g ai/ha,60
same,"Plant response rating, Sorghum",sorghum; 250 g ai/ha,100
same,"Plant response rating, Oat, Wild",wild oat; 31 g ai/ha,0
same,"Plant response rating, Oat, Wild",wild oat; 62 g ai/ha,0
same,"Plant response rating, Oat, Wild",wild oat; 125 g ai/ha,0
same,"Plant response rating, Oat, Wild",wild oat; 250 g ai/ha,10
same,"Plant response rating, Signalgrass",broadleaf signalgrass; 31 g ai/ha,0
same,"Plant response rating, Signalgrass",broadleaf signalgrass; 62 g ai/ha,50
same,"Plant response rating, Signalgrass",broadleaf signalgrass; 125 g ai/ha,65
same,"Plant response rating, Signalgrass",broadleaf signalgrass; 250 g ai/ha,65
same,"Plant response rating, Umbrella Sedge",umbrella sedge,100
same,"Plant response rating, Nightshade",eastern black nightshade; 31 g ai/ha,0
same,"Plant response rating, Nightshade",eastern black nightshade; 62 g ai/ha,40
same,"Plant response rating, Nightshade",eastern black nightshade; 125 g ai/ha,40
same,"Plant response rating, Nightshade",eastern black nightshade; 250 g ai/ha,45
same,"Plant response rating, Cupgrass, Woolly",woolly cupgrass; 31 g ai/ha,0
same,"Plant response rating, Cupgrass, Woolly",woolly cupgrass; 62 g ai/ha,0
same,"Plant response rating, Cupgrass, Woolly",woolly cupgrass; 125 g ai/ha,95
same,"Plant response rating, Cupgrass, Woolly",woolly cupgrass; 250 g ai/ha,95
same,"Plant response rating, Millet",millet; 31 g ai/ha,0
same,"Plant response rating, Millet",millet; 62 g ai/ha,0
same,"Plant response rating, Millet",millet; 125 g ai/ha,75
same,"Plant response rating, Millet",millet; 250 g ai/ha,100
same,"Plant response rating, Rice, Transplanted",rice,80
same,"Plant response rating, Ryegrass, Italian",Italian ryegrass; 31 g ai/ha,0
same,"Plant response rating, Ryegrass, Italian",Italian ryegrass; 62 g ai/ha,0
same,"Plant response rating, Ryegrass, Italian",Italian ryegrass; 125 g ai/ha,30
same,"Plant response rating, Ryegrass, Italian",Italian ryegrass; 250 g ai/ha,50
same,"Plant response rating, Itchgrass",itchgrass; 31 g ai/ha,0
same,"Plant response rating, Itchgrass",itchgrass; 62 g ai/ha,15
same,"Plant response rating, Itchgrass",itchgrass; 125 g ai/ha,30
same,"Plant response rating, Itchgrass",itchgrass; 250 g ai/ha,50
